From patent publication US6365616B1, “Methimazole derivatives and tautomeric cyclic thiones to treat autoimmune diseases” (Sentron Medical, Inc., priority 1998, dated 2002)

How the values were obtained:
[1] = system: MHC class II RNA; test: Northern analysis of MHC class II RNA levels in FRTL-5 cells; assay type: cell-based, rat; conditions: 100 U/ml γ-interferon, 6H medium, 40 hours
[2] = system: (NZB x NZW)F1 mice; test: Prevention of proteinuria (SLE model) in female (NZB x NZW)F1 mice; assay type: in vivo; conditions: for Animals with proteinuria, 30-500 (mg/dl proteinuria) / Animals with proteinuria, >500 (mg/dl proteinuria) / Animals with proteinuria, Neg-Trace (mg/dl proteinuria): 0.05% MMI, 0.01% 5-phenylmethimazole, 0.05% 2-mercaptoimidazole
From the text: Female (NZB x NZW)F1 mice were obtained from Jackson Labs. Animals were followed with AMES 2855 Uristix (Miles) to semiquantitatively measure proteinuria. Proteinuria was taken as a measure of development of SLE and MMI suppression of proteinuria as suppression of renal complexes in kidney (Mozes et al., J. Clin Immunology 18:106-113 (1998)). At 7-8 mos. mice develop proteinuria reflecting renal disease. Treatment was from 2 mos to 6 mos of age. Treatment was oral. Each group had 8 animals to start.
In this experiment, immunohistology was performed in a blind fashion on 5 μm thick frozen kidney sections which were fixed and stained with FITC-conjugated goat antibodies to immunoglobulin G (γ chain specific) as described (Mozes, et al., Science 261:91-93 (1993); Mozes, E., et al., ibid (1998)). Compound 10, a tautomeric cyclic thione, and MMI are effective in preventing SLE in this experimental model.
Death of some animals in this experiment occurred for technical reasons, i.e. flooding of cages, handling, etc., in the last 2 mos. However, losses in the control group were similar to experimental groups. MMI, 2-mercaptoimidazole, and Compound 10 treatments were administered during the period between 2 and 6.25 months of age.

[3] = system: thyroglobulin RNA; test: Northern analysis of thyroglobulin RNA levels in FRTL-5 cells; assay type: cell-based, rat
[4] = system: NOD mice; test: Prevention of glucosuria and diabetes in female NOD mice; assay type: in vivo, mouse; conditions: 5-phenylmethimazole at a fifth the MMI concentration
From the text: Female NOD mice were also obtained from Jackson Labs, along with control mice from which the strain was developed (Makino et al., Exp. Anim. 29:1-13 (1980); Wicker, L. S., et al., Diabetes 35:855-860 (1986)). Animals showing urine Tes-Tape positivity greater than 1 + were considered positive and to have diabetes (Wicker, L. S., et al., ibid (1986)). At 8-16 weeks, […] of NOD mice develop glucosuria and diabetes according to the literature (Wicker, L. S., et al., ibid (1986)).
Table 20 presents results of the ability of Female NOD mice (5 animals were in each group) to develop glucosuria and diabetes when treated with MMI and compound 10 (5-phenylmethimazole) at a fifth the MMI concentration, by comparison to no treatment or treatment with 2-mercaptoimidazole. Mice were from Jackson Labs in this experiment. Animals showing urine Tes-Tape positivity greater than 1+ were considered positive and to have diabetes.
Compound 10 and MMI are therefore effective in preventing diabetes in the NOD mouse example of diabetes.

[5] = system: protein/DNA complex with Fragment 127 of the MHC class I 5′-flanking region; test: Gel shift (EMSA) with downstream 127 class I probe, extracts from treated FRTL-5 cells; assay type: cell-based, rat; conditions: 5H cells treated 48 hours
Description: Cells were grown in 6H medium with 5 % calf serum for 6-7 days to 70-80% confluence, then shifted to 5H medium with 5 % calf serum for 5 days. TSH (1×10^−10 M), gamma-interferon (100 U/ml), MMI (5 mM), and different concentrations of MMI derivatives or tautomeric cyclic thiones (0.0001 to 10 mM) were added as appropriate for […]. Cells were then harvested and extracts were made by a modification of a method of Dignam, J., et al. Methods in Enzymology, 101:582-598 (1983). In brief, cells were harvested by scraping after being washed twice with cold phosphate-buffer saline (PBS). Subsequently they were pelleted, washed in cold PBS and then pelleted again. The pellet was resuspended in Dignam buffer C (20 mM Hepes buffer at pH 7.9, 1.5 mM MgCl2, 0.42 M NaCl, 25% glycerol, 0.5 mM dithiotreitol (DTT), 0.5 mM phenylmethylsulfonylfluoride (PMSF), 1 […] pepstatin). The final NaCl concentration was adjusted on the basis of cell pellet volume to 0.42 M and cells were lysed by repeated cycles of freezing and thawing. Extracts were then centrifuged at 10,000×g at 4° C. for 20 min. The supernatant was recovered, aliquoted and stored at −70° C.
Binding reactions were performed in a volume of 20 μl for 30 min at room temperature. The typical reaction mixture contained 1.5 fmol of ^32P DNA, 3 μg of cell extracts, 1 to 3 μg of poly (dI-dC) in 10 mM Tris-Cl (pH 7.9), 1 mM MgCl2, 1 mM DTT, 1 mM ethylenediamine tetra acetic acid (EDTA), and 5 % glycerol. After incubation, reaction mixtures were subjected to electrophoresis in 4% polyacrylamide gels for 90-120 min at 160 V in 0.5× TBE (Sambrook, J., et al., Molecular Cloning: A Laboratory Manual, 2nd ed. Cold Spring Harbor Press, NY, 2: 11.23-11.44 (1989)), then dried and autoradiographed. Probes were labeled with [α32P] deoxy CTP by Klenow enzyme (In Vitro labeling kit, Amersham) following the manufacturer's instructions, or by [γ^32P] ATP using T4 polynucleotide kinase. Labeled probes were then purified either through G-50 columns (5 prime→3 Prime) or on an 8% polyacrylamide gel.
FIG. 3 denotes the sequence of the downstream region of the PD1 promoter. The location of enhancer A (−180 to −170 bp), the interferon response element (IRE; −161 to −150 bp), and the cAMP response element (CRE; −107 to −100 bp) are noted. The downstream silencer is between −127 and −80 bp (Saji, et al., ibid, 20096-20107 (1997)). Using a 127 bp probe, −125 to +1 bp, MMI (lane 4) or TSH (lane 10) induce the formation of a rapidly migrating protein/DNA complex (FIG. 4) which is clearly evident 24 to 48 h after SH cells are treated. MMI derivatives can also increase this complex, as illustrated for compound 8 in FIG. 4 (lanes 1 to 3). The time most suitable for measurement is 24 to 48 h (FIG. 4) the complex can be quantitated by comparison to control (lane 7 or 9) using densitometry or the phosphoimager as noted earlier. In this case, the increase over control (set at 1) is measured in arbitrary units relative to the maximal increase induced by 5 mM MMI which is arbitrarily set at 10. The results using all 11 compounds in Table 1, each added to cells at different concentrations 48 hours before extracts were prepared, are summarized in Table 3.

Cn1ccnc1S [Compound 1, 1-Methylimidazole-2-thiol]
% inhibition of class II RNA expression ([1]; 100 μM): None | % inhibition of class II RNA expression ([1]; 1 mM): 29 ± 9% | Animals with proteinuria, 30-500 (mg/dl proteinuria) ([2]; 6 mos, oral): 0 of 8 | Animals with proteinuria, >500 (mg/dl proteinuria) ([2]; 6 mos, oral): 0 of 8 | Animals with proteinuria, Neg-Trace (mg/dl proteinuria) ([2]; 6 mos, oral): 8 of 8 | Animals with proteinuria, 30-500 (mg/dl proteinuria) ([2]; 7.5 mos, oral): 2 of 5 | Animals with proteinuria, >500 (mg/dl proteinuria) ([2]; 7.5 mos, oral): 0 of 5 | Animals with proteinuria, Neg-Trace (mg/dl proteinuria) ([2]; 7.5 mos, oral): 3 of 5 | significant numbers of immune complexes in kidneys (FIG. 15) ([2]; immunohistology of frozen kidney sections): not true | development of proteinuria at 7.5 mos ([2]; oral, compound 10 at a fifth the MMI concentration): significantly prevented proteinuria | % increase in TG RNA expression ([3]; 1 mM, 6H medium, 40 hours): 207 ± 10% | increase of TG RNA levels ([3]; Table 17, 1 mM): ~2 fold | development of glucosuria and diabetes by 12 weeks [4]: prevented glucosuria | % increase over control relative to the maximal (5 mM) MMI-increased silencer complex which is set at 10 ([5]; 10 μM): 0% | % increase over control relative to the maximal (5 mM) MMI-increased silencer complex which is set at 10 ([5]; 100 μM): 0% | % increase over control relative to the maximal (5 mM) MMI-increased silencer complex which is set at 10 ([5]; 1 mM): 2 ± 1% | % increase over control relative to the maximal (5 mM) MMI-increased silencer complex which is set at 10 ([5]; 5 mM): 10%
